# Values of other authors as cited in patent US7094785B1, “Method of treating polycythemia vera” (Cornell Research Foundation, Inc., priority 2002, dated 2006).
# Where a name gives a salt, the structure may show the parent alone.
# Tested on: essential thrombocythemia or myelofibrosis
structure (smiles),measurement,value
"Cc1ccc(NC(=O)c2ccc(CN3CCN(C)CC3)cc2)cc1Nc1nccc(-c2cccnc2)n1 [imatinib mesylate, N-{5-[4-(4-methyl-piperazino-methyl)-benzoylamido]-2-methylphenyl}-4-(3-pyridyl)-2-pyrimidine-amine]",effectiveness in other myeloproliferative disorders,not effective
